One experiment has as its target T1, CYP1A2 (Homo sapiens, UniProt P05177).
T1 construct: from tissue; host or cells: pooled human liver microsomes
T1 sequence (P05177 1-516): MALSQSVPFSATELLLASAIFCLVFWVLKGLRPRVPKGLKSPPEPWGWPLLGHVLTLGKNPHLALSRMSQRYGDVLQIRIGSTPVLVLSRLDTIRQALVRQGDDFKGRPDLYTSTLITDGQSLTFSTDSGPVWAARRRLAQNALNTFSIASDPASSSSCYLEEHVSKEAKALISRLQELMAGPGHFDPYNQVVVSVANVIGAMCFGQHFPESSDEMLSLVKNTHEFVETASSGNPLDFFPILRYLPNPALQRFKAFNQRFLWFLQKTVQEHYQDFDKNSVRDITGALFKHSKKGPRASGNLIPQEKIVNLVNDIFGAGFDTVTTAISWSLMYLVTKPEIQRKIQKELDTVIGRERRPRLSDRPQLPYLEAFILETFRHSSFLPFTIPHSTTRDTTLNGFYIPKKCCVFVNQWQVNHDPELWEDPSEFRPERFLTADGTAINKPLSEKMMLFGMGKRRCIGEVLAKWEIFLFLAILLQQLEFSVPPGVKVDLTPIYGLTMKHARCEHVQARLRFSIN
Briefly: CYP-direct inhibition, CYP1A2. It counts as in vitro ADME. The protocol: (§1) Many drugs inhibit cytochrome P450 enzymes to cause clinically significant changes in the pharmacokinetics of other drugs. In vitro cytochrome P450 inhibition, can provide crucial information in evaluating potential clinical drug-drug interactions and is useful for focusing in vivo tests to areas of concern. The cytochrome P450 inhibition assay was developed by preparing a working cocktail solution consisting of six probe substrates 10 μM ethoxy-resorufin (CYP1A2), 100 μM rosiglitazone (CYP2C8), 50 μM diclofenac (CYP2C9), 300 μM S-mephenytoin (CYP2C19), 50 μM dextromethorphan (CYP2D6), and 20 μM midazolam (CYP3A4). A mixture solution consists of 140 uL of 0.286 mg/mL of pooled human liver microsome working solution and 20 uL working solutions of test articles, standard control inhibitors, or positive control placebo and 20 uL of substrate cocktail mixture working solution was prepared. The mixture solution was pre-warm in a gentle shaking bath at 37±2° C. for 5 minutes. The enzymatic reaction started by adding 20 uL of NRS working solution to the mixture solution and incubated for 10 minutes at 37±2° C. To stop the reaction, an addition of 400 μL cold stop solution (acetonitrile containing 50 ng/mL Tolbutamide as an internal standard (I.Std.) was added to the mixture solution. The final concentration of test article, inhibitors, substrates, and cofactors are noted in Table 0.1 below. Two individual samples were prepared for each test compound. The extracted samples were vortexed and then centrifuged at 4500 rpm for 7 minutes using Eppendorf Centrifuge 5910R. 200 uL of supernatant was diluting with 200 uL of 50% Methanol into 96-DW plate for LC/MS/MS analysis
(§2) Concentration-response plots are used to determine the effects of an inhibitor on an enzymatic reaction. A typical concentration-response plot provides fractional activity (Y axis) is plotted as a function of log inhibitor concentration (X axis). The data are fitted using a standard Sigmoidal dose-response equation which is also called a […] logistic equation. The concentration of compound that results in 50% inhibition of maximal activity is termed as the IC50 (inhibitor concentration yielding 50% inhibition). IC50 value is calculated using Prism GraphPad software, version 9. […].
(§3) Cytochrome P450 inhibition of a drug is a key factor in determining pharmacokinetic drug-drug interactions. The objective of this study was to evaluate the inhibition potential of G9a inhibitors on six (6) major human cytochrome P450 enzymes, including CYP1A2, CYP2C8, CYP2C9, CYP2C19, CYP2D6, and CYP3A4. Inhibition was determined by using a substrate cocktail and analyzing the rate of specific metabolites formation. The cytochrome P450 inhibition assay was developed using a cocktail consisting of six (6) probe substrates ethoxy-resorufin (CYP1A2), rosiglitazone (CYP2C8), diclofenac (CYP2C9), S-mephenytoin (CYP2C19), dextromethorphan (CYP2D6), and midazolam (CYP3A4). The cocktail was incubated in human liver microsome with NADPH regenerating system (NRS) in a shaking bath at 37±2° C. The formation of specific metabolites was monitored by LC/MS/MS. Test compound was added to the cocktail-liver microsome mixture at varying concentrations and its effect on cytochrome P450 activity was determined by analyzing the rate of specific metabolite formation. The percent inhibition was calculated and plotted with reference to the concentration, and the IC50 value for inhibition was derived by fitting the data with a using log(inhibitor) vs. normalized response with variable slope least squares fit by Graphpad Prism® software. […].

For the next experiment, the target named is T2, CYP2C8 (Homo sapiens, UniProt P10632).
T2 construct: from tissue; host or cells: pooled human liver microsomes
T2 sequence (P10632 1-490): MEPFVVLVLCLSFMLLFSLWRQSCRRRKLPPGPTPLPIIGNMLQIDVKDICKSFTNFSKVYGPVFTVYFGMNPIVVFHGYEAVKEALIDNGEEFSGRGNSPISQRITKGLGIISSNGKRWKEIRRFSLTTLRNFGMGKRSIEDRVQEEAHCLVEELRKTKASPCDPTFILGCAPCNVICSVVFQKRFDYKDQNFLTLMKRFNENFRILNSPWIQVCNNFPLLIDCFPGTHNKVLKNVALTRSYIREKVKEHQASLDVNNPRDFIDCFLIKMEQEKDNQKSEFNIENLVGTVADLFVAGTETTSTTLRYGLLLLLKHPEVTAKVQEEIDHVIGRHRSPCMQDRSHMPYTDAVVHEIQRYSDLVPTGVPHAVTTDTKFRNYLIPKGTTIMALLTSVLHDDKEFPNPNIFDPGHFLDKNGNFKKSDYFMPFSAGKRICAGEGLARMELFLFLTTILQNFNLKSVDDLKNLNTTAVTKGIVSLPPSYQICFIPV
In words: CYP-direct inhibition, CYP2C8. It counts as in vitro ADME. How it is done: as §1, §2, §3

[1] abbreviates: human liver microsome, substrate ethoxy-resorufin, read-out: IC50 CYP-1A2.

Data on 12 compounds can be found in US11485728B2, “Small molecules for the treatment of autoimmune diseases and cancer” (Athos Therapeutics, Inc., priority 2020, dated 2022).

Where two headings read alike, the source gives them in different places.

For the compound `COc1cc2c(N[C@H]3CCCNC3)nc(N3CCCC3)nc2cc1OCCCN1CCCC1` [Compound 158, (S)-6-methoxy-N-(piperidin-3-yl)-2-(pyrrolidin-1-yl)-7-(3-(pyrrolidin-1-yl)propoxy)quinazolin-4-amine], the concentration for half-maximal inhibition (IC50) at CYP1A2 (setting [1]) and against CYP2C8 was > 100 µM each time.
`COc1cc2c(N[C@@H]3CCCNC3)nc(N3CCCC3)nc2cc1OCCCN1CCCC1` [Compound 159, (R)-6-methoxy-N-(piperidin-3-yl)-2-(pyrrolidin-1-yl)-7-(3-(pyrrolidin-1-yl)propoxy)quinazolin-4-amine]: the half-inhibitory concentration (IC50) at CYP1A2 (setting [1]) and at CYP2C8 was > 100 µM in each case.
For the compound `COc1cc2c(NC3CCOCC3)nc(N3CCCC3)nc2cc1OCCCN1CCCC1` [Compound 164, 6-methoxy-2-(pyrrolidin-1-yl)-7-(3-(pyrrolidin-1-yl)propoxy)-N-(tetrahydro-2H-pyran-4-yl)quinazolin-4-amine], the IC50 (as a rule, the midpoint of a concentration-inhibition curve) on CYP1A2 (setting [1]) was > 100 µM; against CYP2C8, 91.8 µM.
On the same counts, the results for `COc1cc2c(NC3CCOCC3)nc(N3CCC3)nc2cc1OCCCN1CCCC1` [Compound 174, 2-(azetidin-1-yl)-6-methoxy-7-(3-(pyrrolidin-1-yl)propoxy)-N-(tetrahydro-2H-pyran-4-yl)quinazolin-4-amine] are 63.1 µM and > 100 µM.
For `COc1cc2c(NC3CCOCC3)nc(N3CCOCC3)nc2cc1OCCCN1CCCC1` [Compound 195, 6-methoxy-2-morpholino-7-(3-(pyrrolidin-1-yl)propoxy)-N-(tetrahydro-2H-pyran-4-yl)quinazolin-4-amine], the IC50 at CYP1A2 (setting [1]) and against CYP2C8 was > 100 µM each time.
Regarding `COc1cc2c(NC3CCOCC3)nc(N3CCS(=O)(=O)CC3)nc2cc1OCCCN1CCCC1` [Compound 196, 4-(6-methoxy-7-(3-(pyrrolidin-1-yl)propoxy)-4-((tetrahydro-2H-pyran-4-yl)amino)quinazolin-2-yl)thiomorpholine 1,1-dioxide], the half-inhibitory concentration (IC50) on CYP1A2 (setting [1]) and at CYP2C8 was > 100 µM each time.
Regarding `COc1cc2c(NC3CCN(C(C)C)CC3)nc(N3CCC3)nc2cc1OCCCN1CCCC1` [Compound 234, 2-(azetidin-1-yl)-N-(1-isopropylpiperidin-4-yl)-6-methoxy-7-(3-(pyrrolidin-1-yl)propoxy)quinazolin-4-amine], the 50% inhibitory concentration (IC50) at CYP1A2 (setting [1]) and on CYP2C8 was > 100 µM each time.
With `COc1cc2c(NC3CCN(C(C)C)CC3)nc(C#N)nc2cc1OCCCN1CCCC1` [Compound 235, 4-((1-isopropylpiperidin-4-yl)amino)-6-methoxy-7-(3-(pyrrolidin-1-yl)propoxy)quinazoline-2-carbonitrile], the IC50 at CYP1A2 (setting [1]) and at CYP2C8 was > 100 µM each time.
Take `COc1cc2c(NC3CCOCC3)nc(N3CCN(C)CC3)nc2cc1OCCCN1CCCC1` [Compound 236, 6-methoxy-2-(4-methylpiperazin-1-yl)-7-(3-(pyrrolidin-1-yl)propoxy)-N-(tetrahydro-2H-pyran-4-yl)quinazolin-4-amine]: the IC50 on CYP1A2 (setting [1]) and on CYP2C8 was > 100 µM in each case.
For the compound `COc1cc2c(NC3CCOCC3)nc(N3CCCN(C)CC3)nc2cc1OCCCN1CCCC1` [Compound 237, 6-methoxy-2-(4-methyl-1,4-diazepan-1-yl)-7-(3-(pyrrolidin-1-yl)propoxy)-N-(tetrahydro-2H-pyran-4-yl)quinazolin-4-amine], the figures for the IC50 at CYP1A2 (setting [1]) and against CYP2C8 were > 100 µM and 95.5 µM, respectively.
Take `COc1cc2c(NC3CCS(=O)(=O)CC3)nc(N3CCC(F)(F)CC3)nc2cc1C#CCN1CCCC1` [Compound 248, 4-((2-(4,4-difluoropiperidin-1-yl)-6-methoxy-7-(3-(pyrrolidin-1-yl)prop-1-yn-1-yl)quinazolin-4-yl)amino)tetrahydro-2H-thiopyran 1,1-dioxide]: the figures for the concentration for half-maximal inhibition (IC50) at CYP1A2 (setting [1]) and on CYP2C8 were > 100 µM and 43.1 µM, respectively.
With `COc1cc2c(NC3CCN(C(C)C)CC3)nc(N3CCC(F)(F)CC3)nc2cc1OCCCN1CCCC1` [Compound 400, 2-(4,4-difluoropiperidin-1-yl)-N-(1-isopropylpiperidin-4-yl)-6-methoxy-7-(3-(pyrrolidin-1-yl)propoxy)quinazolin-4-amine, reference compound], the half-maximal inhibitory concentration (IC50) against CYP1A2 and on CYP2C8 was > 100 µM throughout.
